In ChEMBL document CHEMBL4334493, “14- and 15-membered lactone macrolides and their analogues and hybrids: structure, molecular mechanism of action and biological activity” (Eur J Med Chem, 2019):
Converted amounts (≈) assume the structure as drawn.

What was measured:
Assay type in all cases: functional
Escherichia coli [1] = assay: Antibacterial activity against Escherichia coli ATCC 25922
Staphylococcus aureus [2] = assay: Antibacterial activity against Staphylococcus aureus BAA-977 expressing iermA
Acinetobacter baumannii = assay: Antibacterial activity against Acinetobacter baumannii ATCC 19606; conditions: ATCC 19606 = CIP 70.34 = JCM 6841
Streptococcus pyogenes [3] = assay: Antibacterial activity against Streptococcus pyogenes ATCC 19615
Enterococcus faecalis [4] = assay: Antibacterial activity against Enterococcus faecalis UN-047 VRE expressing ErmS
Staphylococcus aureus [5] = assay: Antibacterial activity against methicillin resistant Staphylococcus aureus MP513 expressing cErmA
Enterococcus faecalis [6] = assay: Antibacterial activity against Enterococcus faecalis ATCC 29212
Haemophilus influenzae [7] = assay: Antibacterial activity against Haemophilus influenzae ATCC 49247
Streptococcus pneumoniae [8] = assay: Antibacterial activity against Streptococcus pneumoniae UNT-042 expressing ErmB/MefA
Pseudomonas aeruginosa = assay: Antibacterial activity against Pseudomonas aeruginosa ATCC 27853
Staphylococcus aureus [9] = assay: Antibacterial activity against Staphylococcus aureus ATCC 29213
Staphylococcus aureus [10] = assay: Antibacterial activity against methicillin resistant Staphylococcus aureus NRS384 expressing MsrA
Streptococcus pneumoniae [11] = assay: Antibacterial activity against Streptococcus pneumoniae ATCC 49619
Klebsiella pneumoniae = assay: Antibacterial activity against Klebsiella pneumoniae ATCC 10031
Streptococcus pneumoniae [12] = assay: Antibacterial activity against Streptococcus pneumoniae 11J011 by broth microdilution method
Haemophilus influenzae [13] = assay: Antibacterial activity against Haemophilus influenzae ATCC 49247 by broth microdilution method
[14] = tested on: Staphylococcus epidermidis; assay: Antibacterial activity against Staphylococcus epidermidis 11C176 by broth microdilution method
Moraxella catarrhalis = assay: Antibacterial activity against Moraxella catarrhalis by broth microdilution method
Staphylococcus aureus [15] = assay: Antibacterial activity against Staphylococcus aureus ATCC 29213 by broth microdilution method
Staphylococcus aureus [16] = assay: Antibacterial activity against Staphylococcus aureus 11B117 by broth microdilution method
Streptococcus pneumoniae [17] = assay: Antibacterial activity against Streptococcus pneumoniae ATCC 49619 by broth microdilution method
[18] = tested on: Staphylococcus epidermidis; assay: Antibacterial activity against Staphylococcus epidermidis 11X315 by broth microdilution method
Haemophilus influenzae [19] = assay: Antibacterial activity against Haemophilus influenzae 11Q373 by broth microdilution method
Streptococcus pneumoniae [20] = assay: Antibacterial activity against Streptococcus pneumoniae A22072
Streptococcus pneumoniae [21] = assay: Antibacterial activity against Streptococcus pneumoniae B1
Staphylococcus aureus [22] = assay: Antibacterial activity against Staphylococcus aureus
Staphylococcus aureus [23] = assay: Antibacterial activity against Staphylococcus aureus ATCC 25923
Streptococcus pneumoniae [24] = assay: Antibacterial activity against Streptococcus pneumoniae AB11
Streptococcus pyogenes [25] = assay: Antibacterial activity against Streptococcus pyogenes S2
Streptococcus pyogenes [26] = assay: Antibacterial activity against Streptococcus pyogenes R2
[27] = tested on: Staphylococcus haemolyticus; assay: Antibacterial activity against Staphylococcus haemolyticus by broth microdilution method
Staphylococcus aureus [28] = assay: Antibacterial activity against methicillin susceptible and erythromycin resistant Staphylococcus aureus by broth microdilution method
Staphylococcus aureus [29] = assay: Antibacterial activity against methicillin resistant Staphylococcus aureus by broth microdilution method
Staphylococcus aureus [30] = assay: Antibacterial activity against methicillin/erythromycin susceptible Staphylococcus aureus by broth microdilution method
[31] = tested on: Staphylococcus epidermidis; assay: Antibacterial activity against methicillin resistant Staphylococcus epidermidis by broth microdilution method
Haemophilus influenzae [32] = assay: Antibacterial activity against Haemophilus influenzae by broth microdilution method
[33] = tested on: Staphylococcus epidermidis; assay: Antibacterial activity against methicillin susceptible Staphylococcus epidermidis by broth microdilution method
Enterococcus faecalis [34] = assay: Antibacterial activity against Enterococcus faecalis by broth microdilution method
Streptococcus pneumoniae [35] = assay: Antibacterial activity against Streptococcus pneumoniae by broth microdilution method
Staphylococcus aureus [36] = assay: Antibacterial activity against Staphylococcus aureus 10 after 24 hrs by broth microdilution method; conditions: Staphylococcus aureus, 10, 24 h
Escherichia coli [37] = assay: Antibacterial activity against Escherichia coli ECM1888 after 24 hrs by broth microdilution method; conditions: ECM1888, 24 h
Pasteurella multocida = assay: Antibacterial activity against Pasteurella multocida IATCC 11039 after 24 hrs by broth microdilution method; conditions: IATCC 11039, 24 h
[38] = tested on: Staphylococcus epidermidis; assay: Antibacterial activity against Staphylococcus epidermidis ATCC 12228 after 24 hrs by broth microdilution method; conditions: ATCC 12228, 24 h
Enterococcus faecium [39] = assay: Antibacterial activity against Enterococcus faecium 569 after 24 hrs by broth microdilution method; conditions: Enterococcus faecium, 569, 24 h
Histophilus somni = assay: Antibacterial activity against Histophilus somni ATCC 700025 after 24 hrs by broth microdilution method; conditions: ATCC 700025, 24 h
Mannheimia haemolytica = assay: Antibacterial activity against Mannheimia haemolytica IATCC 33396 after 24 hrs by broth microdilution method; conditions: IATCC 33396, 24 h
Escherichia coli [40] = assay: Antibacterial activity against Escherichia coli leuS ANA395 after 24 hrs by broth microdilution method; conditions: leuS ANA395, 24 h
Streptococcus pneumoniae [41] = assay: Antibacterial activity against Streptococcus pneumoniae ATCC 49619 after 24 hrs by broth microdilution method; conditions: ATCC 49619, 24 h
Cutibacterium acnes = assay: Antibacterial activity against Propionibacterium acnes ATCC 6919 after 24 hrs by broth microdilution method; conditions: ATCC 6919, 24 h
Streptococcus pyogenes [42] = assay: Antibacterial activity against Streptococcus pyogenes ATCC 19615 after 24 hrs by broth microdilution method; conditions: ATCC 19615, 24 h
Enterococcus faecium [43] = assay: Antibacterial activity against Enterococcus faecium 568 after 24 hrs by broth microdilution method; conditions: Enterococcus faecium, 568, 24 h
Staphylococcus aureus [44] = assay: Antibacterial activity against Staphylococcus aureus ATCC 25923 after 24 hrs by broth microdilution method; conditions: ATCC 25923, 24 h

CC[C@H]1OC(=O)[C@H](C)C(=O)[C@H](C)[C@@H](O[C@@H]2O[C@H](C)C[C@H](N(C)C)[C@H]2O)[C@](C)(OC)C[C@@H](C)CN[C@H](C)[C@H]2N(CCCCn3cc(-c4cccc(N)c4)nn3)C(=O)O[C@]12C
MIC (Escherichia coli [1]): 4 µg/mL (≈ 4.83 µM) | MIC (Staphylococcus aureus [2]): 0.5 µg/mL (≈ 0.604 µM) | MIC (Acinetobacter baumannii): 4 µg/mL (≈ 4.83 µM) | MIC (Streptococcus pyogenes [3]): ≤ 0.03 µg/mL | MIC (Enterococcus faecalis [4]): > 64 µg/mL | MIC (Staphylococcus aureus [5]): > 64 µg/mL | MIC (Enterococcus faecalis [6]): 0.125 µg/mL (≈ 0.151 µM) | MIC (Haemophilus influenzae [7]): 2 µg/mL (≈ 2.42 µM) | MIC (Streptococcus pneumoniae [8]): 2 µg/mL (≈ 2.42 µM) | MIC (Pseudomonas aeruginosa): 64 µg/mL (≈ 77.3 µM) | MIC (Staphylococcus aureus [9]): 0.5 µg/mL (≈ 0.604 µM) | MIC (Staphylococcus aureus [10]): 1 µg/mL (≈ 1.21 µM) | MIC (Streptococcus pneumoniae [11]): ≤ 0.03 µg/mL | MIC (Klebsiella pneumoniae): 2 µg/mL (≈ 2.42 µM)

CC[C@H]1OC(=O)[C@H](C)C(=O)[C@H](C)[C@@H](O[C@@H]2O[C@H](C)C[C@H](N(C)C)[C@H]2O)[C@](C)(OC)C[C@@H](C)C(=O)[C@H](C)[C@H]2N(CCCN(Cc3ccccc3)c3cnc4ccccc4c3)C(=O)O[C@]12C
MIC50 (Streptococcus pneumoniae [12]): 2 µg/mL (≈ 2.25 µM) | MIC50 (Haemophilus influenzae [13]): 2 µg/mL (≈ 2.25 µM) | MIC50 [14]: 0.25 µg/mL (≈ 0.282 µM) | MIC50 (Moraxella catarrhalis): 0.25 µg/mL (≈ 0.282 µM) | MIC50 (Staphylococcus aureus [15]): 0.25 µg/mL (≈ 0.282 µM) | MIC50 (Staphylococcus aureus [16]): > 64 µg/mL | MIC50 (Streptococcus pneumoniae [17]): 0.031 µg/mL (≈ 0.0349 µM) | MIC50 [18]: 0.25 µg/mL (≈ 0.282 µM) | MIC50 (Haemophilus influenzae [19]): 2 µg/mL (≈ 2.25 µM)

CC[C@H]1OC(=O)[C@H](C)[C@@H](O[C@H]2C[C@@](C)(OC)[C@@H](OC(=O)NCc3cccc(Cl)c3)[C@H](C)O2)[C@H](C)[C@@H](OC2O[C@H](C)C[C@H](N(C)C)[C@H]2O)[C@]2(C)C[C@@H](C)/C(=N\[C@H](C)[C@H]3OC(=O)O[C@@]31C)O2 (some centres not stated)
MIC (Streptococcus pneumoniae [20]): 4 µg/mL (≈ 4.33 µM) | MIC (Streptococcus pneumoniae [21]): 16 µg/mL (≈ 17.3 µM) | MIC (Staphylococcus aureus [22]): 32 µg/mL (≈ 34.6 µM) | MIC (Staphylococcus aureus [23]): 8 µg/mL (≈ 8.65 µM) | MIC (Streptococcus pneumoniae [24]): 16 µg/mL (≈ 17.3 µM) | MIC (Streptococcus pyogenes [25]): 1 µg/mL (≈ 1.08 µM) | MIC (Streptococcus pneumoniae [11]): 0.03 µg/mL (≈ 0.0324 µM) | MIC (Streptococcus pyogenes [26]): 64 µg/mL (≈ 69.2 µM)

CC[C@H]1OC(=O)[C@H](C)C(=O)[C@H](C)[C@@H](O[C@@H]2O[C@H](C)C[C@H](N(C)C)[C@H]2O)[C@](C)(OC)C[C@@H](C)C(=O)[C@H](C)[C@H]2N(CCCN(c3cnc4ccccc4c3)S(=O)(=O)c3ccc(C)cc3)C(=O)O[C@]12C
MIC50 (Streptococcus pneumoniae [12]): 2 µg/mL (≈ 2.1 µM) | MIC50 (Haemophilus influenzae [13]): 32 µg/mL (≈ 33.6 µM) | MIC50 [14]: 1 µg/mL (≈ 1.05 µM) | MIC50 (Moraxella catarrhalis): 2 µg/mL (≈ 2.1 µM) | MIC50 (Staphylococcus aureus [15]): 2 µg/mL (≈ 2.1 µM) | MIC50 (Staphylococcus aureus [16]): > 64 µg/mL | MIC50 (Streptococcus pneumoniae [17]): 0.25 µg/mL (≈ 0.263 µM) | MIC50 [18]: 1 µg/mL (≈ 1.05 µM) | MIC50 (Haemophilus influenzae [19]): 16 µg/mL (≈ 16.8 µM)

CC[C@H]1OC(=O)[C@H](C)C(=O)[C@H](C)[C@@H](O[C@@H]2O[C@H](C)C[C@H](N(C)C)[C@H]2O)[C@](C)(OC)C[C@@H](C)C(=O)[C@H](C)[C@H]2N(CCCOC(=O)Nc3cccc(C)c3)C(=O)O[C@]12C
MIC50 [27]: 1 to 2 µg/mL (≈ 1.24 to 2.49 µM) | MIC50 (Staphylococcus aureus [28]): 0.25 µg/mL (≈ 0.311 µM) | MIC50 (Staphylococcus aureus [29]): 128 to 256 µg/mL (≈ 159 to 318 µM) | MIC50 (Staphylococcus aureus [30]): 0.125 µg/mL (≈ 0.155 µM) | MIC50 [31]: 1 to 128 µg/mL (≈ 1.24 to 159 µM) | MIC50 (Haemophilus influenzae [32]): 4 to 8 µg/mL (≈ 4.98 to 9.95 µM) | MIC50 [33]: 0.031 µg/mL (≈ 0.0386 µM) | MIC50 (Enterococcus faecalis [34]): > 256 µg/mL | MIC50 (Streptococcus pneumoniae [35]): 0.062 to 0.125 µg/mL (≈ 0.0771 to 0.155 µM)

CC[C@H]1OC(=O)[C@H](C)[C@@H](O[C@H]2C[C@@](C)(OC)[C@@H](OC(=O)NCCCNC(=O)CCc3cccc4c3B(O)OC4)[C@H](C)O2)[C@H](C)[C@@H](O[C@@H]2O[C@H](C)C[C@H](N(C)C)[C@H]2O)[C@](C)(O)C[C@@H](C)CN(C)[C@H](C)[C@H]2OC(=O)O[C@@]21C
MIC (Staphylococcus aureus [36]): 0.5 µg/mL (≈ 0.47 µM) | MIC (Escherichia coli [37]): 8 µg/mL (≈ 7.53 µM) | MIC (Pasteurella multocida): 4 µg/mL (≈ 3.76 µM) | MIC [38]: 8 µg/mL (≈ 7.53 µM) | MIC (Enterococcus faecium [39]): 2 µg/mL (≈ 1.88 µM) | MIC (Histophilus somni): 4 µg/mL (≈ 3.76 µM) | MIC (Mannheimia haemolytica): 8 µg/mL (≈ 7.53 µM) | MIC (Escherichia coli [40]): 8 µg/mL (≈ 7.53 µM) | MIC (Streptococcus pneumoniae [41]): 0.13 µg/mL (≈ 0.122 µM) | MIC (Cutibacterium acnes): ≤ 0.12 µg/mL | MIC (Streptococcus pyogenes [42]): 0.25 µg/mL (≈ 0.235 µM) | MIC (Enterococcus faecium [43]): 0.13 µg/mL (≈ 0.122 µM) | MIC (Staphylococcus aureus [44]): 4 µg/mL (≈ 3.76 µM)
